The subject of this assay is VEGFR-2 promoter. Kind of assay: In vivo bioluminescence imaging of female VEGFR2 transgenic mouse during estrus. The settings on record: subcutaneous 30mg/kg/day for 16 days, female VEGFR2 transgenic F1 mouse (founder KA); before treatment signal high for a maximum of 3–5 days. From the text: Two female VEGFR2 transgenic F1 mice from founder KA (See Example 7 above) were subjected to in vivo imaging of bioluminescence both dorsally and ventrally over a 16 day period according to the methods described in U.S. Pat. No. 5,650,135 to Contag et al. The results are presented graphically in FIGS. 18A–18D (FIGS. 18A and 18B, mouse 1 and 2 dorsal views, respectively, and FIGS. 18C and 18D, mouse 1 and 2 ventral views, respectively). […] In general, higher levels of luminescence were detectable ventrally as compared to dorsally. The signals appeared to be localized in the ovary (dorsal view) and uterus (ventral view). Both ovaries were clearly visible in most of the dorsal views. The uterus, connecting tubes and ovaries were visible in some of the ventral views.
The effect of the known estrogen antagonist ICI 182 780 (Tocris Cookson Ltd. Bristol, UK) on gene expression mediated by the VEGFR-2 promoter was investigated using the methods described in the preceding example.
A mature female VEGFR2 transgenic F1 mouse from founder KA (See Example 7 above) was imaged daily for 16 days according to the methods described in U.S. Pat. No. 5,650,135 to Contag et al. The bioluminescence signal remained high for a maximum of from 3–5 days, dropping back to a basal level for the interim periods. […]

Turning to `C[C@]12CC[C@@H]3c4ccc(O)cc4C[C@@H](CCCCCCCCC[S+]([O-])CCCC(F)(F)C(F)(F)F)[C@H]3[C@@H]1CC[C@@H]2O` (stereo partly shown) [ICI 182 780], the “time the uterine bioluminescence signal remained high before dropping back to basal level” value is 9 days.

Source of the values: patent US7196190B2, “Methods and compositions for screening for angiogenesis modulating compounds” (Xenogen Corporation, priority 1999, dated 2007).
